19 molecules from patent US9187460B2, “Estrogen receptor modulators and uses thereof” (SERAGON PHARMACEUTICALS, INC., priority 2011, dated 2015) can be followed below.

One experiment addresses T1, ER-α (Homo sapiens, UniProt P03372).
T1 construct: endogenous in cells; host or cells: MCF-7
The experiment in a line: Breast Cancer Cell ER-α in Cell Western Assay (SP1). The class given is cell-based. The note with it: MCF7, read-out: ER In-Cell Western Assay (SP1); Max Response. The protocol: Breast Cancer Cell ER-α in Cell Western Assay (SP1)
MCF-7 cells were adjusted to a concentration of 200,000 cells per mL in RPMI containing 10% charcoal-stripped FBS and 20 mM HEPES. 16 microliters of the cell suspension (3200 cells) was added to each well of a poly-D-lysine 384 well plate, and the cells were incubated overnight to allow the cells to adhere. The following day an eleven point, serial semilog dilution of each compound was added to the cells in 16 μL at a final concentration ranging from 0.3-0.000003 μM. At 4 or 24 hr post compound addition, the cells were fixed (10% formalin in PBS) for 20 minutes. Cells were permeablized in PBS 0.1% Triton and blocked with LICOR blocking buffer (50 μl/well, 90′). The wells were then incubated overnight at 4° C. with SP1 rabbit monoclonal Ab (Thermo Scientific) diluted 1:1000 in LICOR blocking buffer/0.1% Tween-20. Wells which were treated with blocking buffer with Tween but no antibody were used as a background control. Wells were washed with 0.1% Tween-20/PBS and then incubated in goat anti-rabbit IRDye™ 800CW (LICOR Inc.; 1:1000) and DRAQ5 DNA dye (1:2000 for 2 mM stock) diluted in LICOR blocking buffer containing 0.1% Tween-20 and 0.01% SDS for 60 minutes. Cells were washed (50 μl/well, 5′ each) in 0.1% Tween-20/PBS. Plates were scanned on a LICOR Odyssey infrared imaging system. Integrated intensities in the 800 nm channel and 700 nm channel were measured to determine levels of ER and DNA respectively. Percent ER levels were determined as follows: (Integrated intensity 800 nm sample/integrated intensity 700 nm sample)/(Integrated intensity 800 nm untreated cells/integrated intensity 700 nm untreated cells)×100=% ER levels.

The next experiment relates to MCF-7 cells. The experiment in a line: Breast Cancer Cell Viability Assay (MCF7 Viability Assay). It is filed as cell-based. The note with it: for IC50: Homo sapiens, MCF7, 120 h, read-out: MCF7 Viability Assay IC50; for MCF7 Viability Assay Max Response: MCF-7 cells, 5 days' compound exposure, CellTiter-Glo. For orientation: ATP-based viability assays read luminescence as a measure of living cells.

T1 sequence (P03372 whole entry): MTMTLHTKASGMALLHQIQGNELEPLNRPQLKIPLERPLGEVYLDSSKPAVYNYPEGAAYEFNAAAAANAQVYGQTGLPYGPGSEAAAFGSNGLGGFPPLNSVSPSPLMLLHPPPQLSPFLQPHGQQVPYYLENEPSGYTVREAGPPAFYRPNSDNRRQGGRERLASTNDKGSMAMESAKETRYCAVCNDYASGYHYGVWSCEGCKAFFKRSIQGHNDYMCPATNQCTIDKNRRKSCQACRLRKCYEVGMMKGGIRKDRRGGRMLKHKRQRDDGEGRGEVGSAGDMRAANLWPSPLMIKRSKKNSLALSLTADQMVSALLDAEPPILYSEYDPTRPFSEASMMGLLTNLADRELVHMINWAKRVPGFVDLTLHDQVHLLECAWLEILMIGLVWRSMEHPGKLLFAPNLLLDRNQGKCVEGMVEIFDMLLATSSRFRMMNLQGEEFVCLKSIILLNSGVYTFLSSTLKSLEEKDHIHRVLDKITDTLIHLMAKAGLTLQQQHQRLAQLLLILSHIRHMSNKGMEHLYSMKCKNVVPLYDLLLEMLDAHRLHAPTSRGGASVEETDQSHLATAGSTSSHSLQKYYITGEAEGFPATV

As for `CC1=C(c2cc(O)cc(Br)c2)C(c2ccc(OC[C@H](C)N3CC[C@@H](C)C3)cc2)Oc2ccc(O)cc21` (stereo partly drawn) [Example 1, 3-(3-Bromo-5-hydroxyphenyl)-4-methyl-2-(4-((S)-2-((R)-3-methylpyrrolidin-1-yl)propoxy)phenyl)-2H-chromen-6-ol], the Emax on ER-α was > 85%. For the same molecule, in the experiment with MCF-7 cells, the IC50 is < 1 nM and the “MCF7 Viability Assay Max Response” value is given as “++ (++ = a single % value ≧50%)”.
Turning to `CC1=C(c2cc(O)ccc2Br)C(c2ccc(OC[C@H](C)N3CC[C@@H](C)C3)cc2)Oc2ccc(O)cc21` (stereo partly drawn) [Example 2, 3-(2-Bromo-5-hydroxyphenyl)-4-methyl-2-(4-((S)-2-((R)-3-methylpyrrolidin-1-yl)propoxy)phenyl)-2H-chromen-6-ol], on ER-α, the Emax is > 85%. Moreover, in the experiment with MCF-7 cells, the IC50 is < 1 nM and the “MCF7 Viability Assay Max Response” value is “++ (++ = a single % value ≧50%)”.
In the case of `CC1=C(c2ccccc2Br)C(c2ccc(OC[C@H](C)N3CC[C@@H](C)C3)cc2)Oc2ccc(O)cc21` (stereo partly drawn) [Example 3, 3-(2-Bromophenyl)-4-methyl-2-(4-((S)-2-((R)-3-methylpyrrolidin-1-yl)propoxy)phenyl)-2H-chromen-6-ol], the Emax at ER-α fell in the range of 60 to 85%. Further, in the experiment on MCF-7 cells, the 50% inhibitory concentration (IC50) is < 1 nM and the “MCF7 Viability Assay Max Response” value is “++ (++ = a single % value ≧50%)”.
For the molecule `CC1=C(c2ccc(Br)cc2C)C(c2ccc(OC[C@H](C)N3CC[C@@H](C)C3)cc2)Oc2ccc(O)cc21` (stereo partly drawn) [Example 4, 3-(4-Bromo-2-methylphenyl)-4-methyl-2-(4-((S)-2-((R)-3-methylpyrrolidin-1-yl)propoxy)phenyl)-2H-chromen-6-ol], at ER-α, the Emax lay in the range of 60 to 85%. Further, in the experiment with MCF-7 cells, the IC50 was > 1 nM and the “MCF7 Viability Assay Max Response” value is “++ (++ = a single % value ≧50%)”.
In the same order, the values of `CC1=C(c2ccc(C#N)cc2)C(c2ccc(OC[C@H](C)N3CC[C@@H](C)C3)cc2)Oc2ccc(O)cc21` (stereo partly drawn) [Example 5, 4-(6-Hydroxy-4-methyl-2-(4-((S)-2-((R)-3-methylpyrrolidin-1-yl)propoxy)phenyl)-2H-chromen-3-yl)benzonitrile] are 60 to 85%, > 1 nM and “++ (++ = a single % value ≧50%)”.
As to `CC1=C(c2cccc(C#N)c2)C(c2ccc(OC[C@H](C)N3CC[C@@H](C)C3)cc2)Oc2ccc(O)cc21` (stereo partly drawn) [Example 6, 3-(6-Hydroxy-4-methyl-2-(4-((S)-2-((R)-3-methylpyrrolidin-1-yl)propoxy)phenyl)-2H-chromen-3-yl)benzonitrile], at ER-α, the Emax fell in the range of 60 to 85%. In the experiment with MCF-7 cells, the IC50 is > 1 nM and the “MCF7 Viability Assay Max Response” value was “++ (++ = a single % value ≧50%)”.
As for `CC1=C(c2cc(O)cc(C#N)c2)C(c2ccc(OC[C@H](C)N3CC[C@@H](C)C3)cc2)Oc2ccc(O)cc21` (stereo partly drawn) [Example 7, 3-Hydroxy-5-(6-hydroxy-4-methyl-2-(4-((S)-2-((R)-3-methylpyrrolidin-1-yl)propoxy)phenyl)-2H-chromen-3-yl)benzonitrile], at ER-α, the Emax fell in the range of 60 to 85%. In addition, in the experiment with MCF-7 cells, the IC50 was < 1 nM and the “MCF7 Viability Assay Max Response” value was “++ (++ = a single % value ≧50%)”.
In the same order, the values of `CC1=C(c2cc(O)ccc2C#N)C(c2ccc(OC[C@H](C)N3CC[C@@H](C)C3)cc2)Oc2ccc(O)cc21` (stereo partly drawn) [Example 8, 4-Hydroxy-2-(6-hydroxy-4-methyl-2-(4-((S)-2-((R)-3-methylpyrrolidin-1-yl)propoxy)phenyl)-2H-chromen-3-yl)benzonitrile] are > 85%, < 1 nM and “++ (++ = a single % value ≧50%)”.
As to `CC1=C(c2cccc(O)c2C#N)C(c2ccc(OC[C@H](C)N3CC[C@@H](C)C3)cc2)Oc2ccc(O)cc21` (stereo partly drawn) [Example 9, 2-Hydroxy-6-(6-hydroxy-4-methyl-2-(4-((S)-2-((R)-3-methylpyrrolidin-1-yl)propoxy)phenyl)-2H-chromen-3-yl)benzonitrile], on ER-α, the Emax lay in the range of 60 to 85%. Also, in the experiment on MCF-7 cells, the IC50 is > 1 nM and the “MCF7 Viability Assay Max Response” value is on record as “++ (++ = a single % value ≧50%)”.
For `CC1=C(c2ccc(C#N)c(O)c2)C(c2ccc(OC[C@H](C)N3CC[C@@H](C)C3)cc2)Oc2ccc(O)cc21` (stereo partly drawn) [Example 10, 2-Hydroxy-4-(6-hydroxy-4-methyl-2-(4-((S)-2-((R)-3-methylpyrrolidin-1-yl)propoxy)phenyl)-2H-chromen-3-yl)benzonitrile], the Emax at ER-α was > 85%. Also, in the experiment with MCF-7 cells, the half-inhibitory concentration (IC50) was > 1 nM and the “MCF7 Viability Assay Max Response” value is “++ (++ = a single % value ≧50%)”.
Regarding `CC1=C(c2ccc(O)c(C#N)c2)C(c2ccc(OC[C@H](C)N3CC[C@@H](C)C3)cc2)Oc2ccc(O)cc21` (stereo partly drawn) [Example 11, 2-Hydroxy-5-(6-hydroxy-4-methyl-2-(4-((S)-2-((R)-3-methylpyrrolidin-1-yl)propoxy)phenyl)-2H-chromen-3-yl)benzonitrile], the Emax on ER-α is > 85%. For the same molecule, in the experiment on MCF-7 cells, the IC50 is > 1 nM and the “MCF7 Viability Assay Max Response” value is on record as “++ (++ = a single % value ≧50%)”.
Consider `CC1=C(c2ccc(O)cc2C#N)C(c2ccc(OC[C@H](C)N3CC[C@@H](C)C3)cc2)Oc2ccc(O)cc21` (stereo partly drawn) [Example 12, 5-Hydroxy-2-(6-hydroxy-4-methyl-2-(4-((S)-2-((R)-3-methylpyrrolidin-1-yl)propoxy)phenyl)-2H-chromen-3-yl)benzonitrile], for which, at ER-α, the Emax was in the range of 60 to 85%. Also, in the experiment with MCF-7 cells, the IC50 was < 1 nM and the “MCF7 Viability Assay Max Response” value is “++ (++ = a single % value ≧50%)”.
In the same order, the values of `CC1=C(c2ccc(C#N)cc2C)C(c2ccc(OC[C@H](C)N3CC[C@@H](C)C3)cc2)Oc2ccc(O)cc21` (stereo partly drawn) [Example 13, 4-(6-Hydroxy-4-methyl-2-(4-((S)-2-((R)-3-methylpyrrolidin-1-yl)propoxy)phenyl)-2H-chromen-3-yl)-3-methylbenzonitrile] are 60 to 85%, > 1 nM and “++ (++ = a single % value ≧50%)”.
Take `CC1=C(c2ccccc2C#N)C(c2ccc(OC[C@H](C)N3CC[C@@H](C)C3)cc2)Oc2ccc(O)cc21` (stereo partly drawn) [Example 14, 2-(6-Hydroxy-4-methyl-2-(4-((S)-2-((R)-3-methylpyrrolidin-1-yl)propoxy)phenyl)-2H-chromen-3-yl)benzonitrile]: the Emax at ER-α lay in the range of 60 to 85%. Also, in the experiment on MCF-7 cells, the IC50 was > 1 nM and the “MCF7 Viability Assay Max Response” value is recorded as “++ (++ = a single % value ≧50%)”.
Consider `CC1=C(c2cccc(S(C)(=O)=O)c2)C(c2ccc(OC[C@H](C)N3CC[C@@H](C)C3)cc2)Oc2ccc(O)cc21` (stereo partly drawn) [Example 15, 4-Methyl-2-(4-((S)-2-((R)-3-methylpyrrolidin-1-yl)propoxy)phenyl)-3-(3-(methylsulfonyl)phenyl)-2H-chromen-6-ol], for which, on ER-α, the Emax lay in the range of 60 to 85%. In addition, in the experiment with MCF-7 cells, the IC50 was > 1 nM and the “MCF7 Viability Assay Max Response” value is “++ (++ = a single % value ≧50%)”.
On to `CC1=C(c2cc(O)cc(S(C)(=O)=O)c2)C(c2ccc(OC[C@H](C)N3CC[C@@H](C)C3)cc2)Oc2ccc(O)cc21` (stereo partly drawn) [Example 16, 3-(3-Hydroxy-5-(methylsulfonyl)phenyl)-4-methyl-2-(4-((S)-2-((R)-3-methylpyrrolidin-1-yl)propoxy)phenyl)-2H-chromen-6-ol], for which the Emax on ER-α was in the range of 60 to 85%. Also, in the experiment on MCF-7 cells, the IC50 was > 1 nM and the “MCF7 Viability Assay Max Response” value is “++ (++ = a single % value ≧50%)”.
As for `CC1=C(c2ccc(O)c(S(C)(=O)=O)c2)C(c2ccc(OC[C@H](C)N3CC[C@@H](C)C3)cc2)Oc2ccc(O)cc21` (stereo partly drawn) [Example 17, 3-(4-Hydroxy-3-(methylsulfonyl)phenyl)-4-methyl-2-(4-((S)-2-((R)-3-methylpyrrolidin-1-yl)propoxy)phenyl)-2H-chromen-6-ol], the Emax on ER-α is < 60%. Moreover, in the experiment with MCF-7 cells, the IC50 is > 1 nM and the “MCF7 Viability Assay Max Response” value is on record as “+ (+ = a single % value <50%)”.
In the case of `CC1=C(c2ccc(S(C)(=O)=O)cc2C)C(c2ccc(OC[C@H](C)N3CC[C@@H](C)C3)cc2)Oc2ccc(O)cc21` (stereo partly drawn) [Example 18, 4-Methyl-3-(2-methyl-4-(methylsulfonyl)phenyl)-2-(4-((S)-2-((R)-3-methylpyrrolidin-1-yl)propoxy)phenyl)-2H-chromen-6-ol], the Emax on ER-α was in the range of 60 to 85%. Besides, in the experiment with MCF-7 cells, the IC50 is > 1 nM and the “MCF7 Viability Assay Max Response” value is “++ (++ = a single % value ≧50%)”.
With `CC1=C(c2cccc(O)c2)C(c2ccc(OCCN3CCSCC3)cc2)Oc2ccc(O)cc21` (stereo not drawn) [Example 19, 3-(3-Hydroxyphenyl)-4-methyl-2-(4-(2-thiomorpholinoethoxy)phenyl)-2H-chromen-6-ol], at ER-α, the Emax is 60 to 85%. In the experiment on MCF-7 cells, the IC50 was < 1 nM and the “MCF7 Viability Assay Max Response” value is reported as “+ (+ = a single % value <50%)”.

For orientation: IC50 means the midpoint of a concentration-inhibition curve.
